From patent US11827917B1, “Methods for the conversion of fermentable sugars to ethanol” (Colorado State University Research Foundation, priority 2020, dated 2023)
Marks after values point to notes of the source that are not given here.

Assays:
S. cerevisiae JAY 270 [1] = experiment: Growth test in liquid YNB medium, low/high nitrogen, serum bottles; format: cell-based, Saccharomyces cerevisiae; settings: 40, 200, 1000 mg/L; low and high nitrogen media
Method: A second set of tests was performed in a defined liquid medium, Yeast Nitrogen Base with Glucose (YNB), containing (NH4)2SO4 at either low (1 mM) or high (10 mM) nitrogen content. […] All serum bottles were incubated in a shaker at 30° C. and 150 RPM. Each treatment was performed in biological duplicate. Samples were collected at 0, 5, and 10 hours.

S. cerevisiae JAY 270 [2] = experiment: Serum-bottle cultivation in YPD: biomass, glycerol, ethanol yields; format: cell-based, Saccharomyces cerevisiae
Method: Procedure: Cultivations in serum bottles were used to determine the effect of the best-performing screened chemicals on the ethanol yield. S. cerevisiae JAY 270 was pre-cultured in 100 mL of YPD medium in 200-mL serum bottles overnight in a shaker at 30° C. and 200 rpm. The precultured yeast cells were collected and washed twice as described above. The cell pellet was resuspended in about 10 mL of 0.8% (w/v) NaCl and the cell concentration was estimated as OD600. TyrOH, PheOH, and TrpOH were added to 30 mL of YPD medium in 100-mL serum bottles at 0.05% and 0.2% respectively. The same amount of DMSO was added to YPD medium to serve as the control for TrpOH and TyrOH treatments. The bottles were inoculated with the prepared yeast cells to obtain an initial cell concentration of OD600=0.2. The serum bottles were sealed and cultured in a shaker at 30° C. and 200 rpm for 24 h. Each condition had three biological replicates.
(§1) Analytical methods: Cell growth was evaluated by monitoring OD600 and cell dry mass concentration. For dry mass measurements, 1.0 mL of culture was transferred to a pre-dried and pre-weighed 2-mL centrifuge tube. The tubes were centrifuged for 10 min at 14000 rpm using a microcentrifuge, and then the cell pellets were dried in an oven for 3 days at 65° C. The cell dry mass was determined by subtracting the initial tube mass from the dried mass of tube with cells. The concentrations of glucose, ethanol, and glycerol were measured via HPLC (Shimadzu LC20A series) outfitted with a refractive index detector and using an Aminex HPX-87H (300×7.8 mm) organic acid column and Cation H+ guard cartridge (Bio Rad Laboratories, Hercules, CA). The column was maintained at 65° C. and the mobile phase was 5 mM sulfuric acid with a flow rate of 0.6 mL/min. Standard compound solutions were used to calibrate the HPLC. Each sample was analyzed three times by HPLC.

S. kudriavzezii JAY 1503 = experiment: Serum-bottle cultivation in YPD, different yeast strains; format: cell-based; settings: 0.2%
Method: as §1
(§2) Procedure: Seven yeast strains (S. cerevisiae ATCC 26603, S. cerevisiae JAY 238, S. cerevisiae JAY 240, S. cerevisiae JAY 241, S. paradoxus JAY 1502, S. kudriavzezii JAY 1503, and S. mikatae JAY 1504) were pre-cultured in 30 mL of YPD medium in 100 mL serum bottle overnight in a shaker at 30° C. and 200 rpm. The precultured yeast cells of each strains were collected and washed twice. Finally, the cell pellet was resuspended in about 10 mL 0.8% (w/v) NaCl and the OD600 measured. TyrOH, PheOH, and TrpOH were added to 30 mL of YPD medium in 100-mL serum bottles at 0.2% (w/v) respectively. The same amount of DMSO was added in YPD medium and served as control to the TrpOH and TyrOH treatments. The prepared yeast cells were added to obtain the initial cell concentration at OD600=0.2. The serum bottles were sealed and cultured in a shaker at 30° C. and 200 rpm for 24 h. There were three biological replicates for each treatment.

S. mikatae JAY 1504 = experiment: as above; format: cell-based; settings: 0.2%
Method: as §1, §2

S. paradoxus JAY 1502 = experiment: as above; format: cell-based; settings: 0.2%
Method: as §1, §2

[3] = 0.05% (w/v), YPD, serum bottles
[4] = S. paradoxus JAY 1502, YPD (Table 9B)

SMILES: OCCc1c[nH]c2ccccc12 [TrpOH, tryptophol]
- Inhibitory effect on yeast cell growth in liquid YNB medium (S. cerevisiae JAY 270 [1]): strongest inhibitory effect
- Biomass Yield (S. cerevisiae JAY 270 [2]; [3]): 0.078 + 0.001 g/g
- Biomass yield % change vs. control (S. cerevisiae JAY 270 [2]; [3]): −22* %
- EtOH yield (S. cerevisiae JAY 270 [2]; [3]): 0.41 ± 0.01 g/g
- EtOH yield % change vs. control (S. cerevisiae JAY 270 [2]; [3]): 7.9* %
- Glycerol yield (S. cerevisiae JAY 270 [2]; [3]): 0.027 ± 0.001 g/g
- Glycerol yield % change vs. control (S. cerevisiae JAY 270 [2]; [3]): −20* %
- Biomass yield vs. reference (S. cerevisiae JAY 270 [2]; 0.05%, YPD, serum bottles): −22.0%
- Ethanol yield (S. cerevisiae JAY 270 [2]; 0.05%, YPD, serum bottles): 0.41 ± 0.01 g/g
- Ethanol yield vs. reference (S. cerevisiae JAY 270 [2]; 0.05%, YPD, serum bottles): 7.9%
- Glycerol yield (S. cerevisiae JAY 270 [2]; 0.05%, YPD, serum bottles): 0.027 ± 0.001 g/g
- Glycerol yield vs. reference (S. cerevisiae JAY 270 [2]; 0.05%, YPD, serum bottles): −19.6%
- OD600 (S. cerevisiae JAY 270 [2]; 0.05%, YPD, serum bottles): 3.01
- Effect on yeast cell growth (S. cerevisiae JAY 270 [2]; 0.2%): reduced yeast cell growth
- Biomass Yield (S. cerevisiae JAY 270 [2]; 0.2% (w/v), YPD, serum bottles): 0.042 + 0.006 g/g
- Biomass yield % change vs. control (S. cerevisiae JAY 270 [2]; 0.2% (w/v), YPD, serum bottles): −58* %
- EtOH yield (S. cerevisiae JAY 270 [2]; 0.2% (w/v), YPD, serum bottles): 0.41 ± 0.01 g/g
- EtOH yield % change vs. control (S. cerevisiae JAY 270 [2]; 0.2% (w/v), YPD, serum bottles): 10* %
- Glycerol yield (S. cerevisiae JAY 270 [2]; 0.2% (w/v), YPD, serum bottles): 0.027 ± 0.009 g/g
- Glycerol yield % change vs. control (S. cerevisiae JAY 270 [2]; 0.2% (w/v), YPD, serum bottles): −22* %
- Biomass yield vs. reference (S. cerevisiae JAY 270 [2]; 0.2%, YPD, serum bottles): −58.2%
- Effect on ethanol yield (S. cerevisiae JAY 270 [2]; 0.2%, YPD, serum bottles): increased the ethanol yield significantly
- Ethanol yield (S. cerevisiae JAY 270 [2]; 0.2%, YPD, serum bottles): 0.41 ± 0.01 g/g
- Ethanol yield vs. reference (S. cerevisiae JAY 270 [2]; 0.2%, YPD, serum bottles): 10.3%
- Glycerol yield (S. cerevisiae JAY 270 [2]; 0.2%, YPD, serum bottles): 0.027 ± 0.009 g/g
- Glycerol yield vs. reference (S. cerevisiae JAY 270 [2]; 0.2%, YPD, serum bottles): −21.9%
- OD600 (S. cerevisiae JAY 270 [2]; 0.2%, YPD, serum bottles): 1.52
- Cell growth (S. kudriavzezii JAY 1503; S. kudriavzezii JAY 1503): very low cell growth
- DCW (S. kudriavzezii JAY 1503; S. kudriavzezii JAY 1503, YPD): 0.48 mg
- DCW Δ vs. ref (S. kudriavzezii JAY 1503; S. kudriavzezii JAY 1503, YPD): 18.6%
- OD600 (S. kudriavzezii JAY 1503; S. kudriavzezii JAY 1503, YPD): 0.16
- OD600 Δ vs. ref (S. kudriavzezii JAY 1503; S. kudriavzezii JAY 1503, YPD): 9.9%
- Cell growth (S. mikatae JAY 1504; S. mikatae JAY 1504): very low cell growth
- DCW (S. mikatae JAY 1504; S. mikatae JAY 1504, YPD): 1.45 mg
- DCW Δ vs. ref (S. mikatae JAY 1504; S. mikatae JAY 1504, YPD): 43.3%
- OD600 (S. mikatae JAY 1504; S. mikatae JAY 1504, YPD): 0.64
- OD600 Δ vs. ref (S. mikatae JAY 1504; S. mikatae JAY 1504, YPD): 28.1%
- Biomass Yield (S. paradoxus JAY 1502; S. paradoxus JAY 1502): 0.038 ± 0.001 g/g
- Biomass yield % change vs. control (S. paradoxus JAY 1502; S. paradoxus JAY 1502): −42* %
- EtOH yield (S. paradoxus JAY 1502; S. paradoxus JAY 1502): 0.417 ± 0.056 g/g
- EtOH yield % change vs. control (S. paradoxus JAY 1502; S. paradoxus JAY 1502): +7.2* %
- Glycerol yield increase from control (S. paradoxus JAY 1502; S. paradoxus JAY 1502): 71%
- DCW (S. paradoxus JAY 1502; S. paradoxus JAY 1502, YPD): 1.40 mg
- DCW Δ vs. ref (S. paradoxus JAY 1502; S. paradoxus JAY 1502, YPD): 52.8%
- OD600 (S. paradoxus JAY 1502; S. paradoxus JAY 1502, YPD): 0.40
- OD600 Δ vs. ref (S. paradoxus JAY 1502; S. paradoxus JAY 1502, YPD): 18.0%
- Biomass Yield (S. paradoxus JAY 1502; [4]): 0.038 + 0.001 g/g
- Biomass yield Δ vs. ref (S. paradoxus JAY 1502; [4]): −42.0%
- Ethanol yield (S. paradoxus JAY 1502; [4]): 0.417 ± 0.056 g/g
- Ethanol yield Δ vs. ref (S. paradoxus JAY 1502; [4]): 7.2%
